Patent US20080176936A1, “Classes of Compounds that Interact with Integrins” (priority 2005, published 2008)

Key:
[1] = biological target: T1, αVβ3 integrin (Homo sapiens, UniProt P05106+P06756); test: ELISA: inhibition of binding of αVβ3 integrin (source WM-115 cell line) to coated extracellular matrix protein; settings: WM-115 cell line as integrin source
T1 construct: the cell line WM-115 was used as a source of αVβ3 integrin; endogenous in cells; host or cells: WM-115 cell line
Procedure, shortened: (§1)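 Integrin sources were human platelet membrane preparations for αIIbβ3 and WM-115 cells for αVβ3, each preincubated with test compound. Binding to fibrinogen- or vitronectin-coated plates (10 µg/well) was quantified with an anti-integrin β3 antibody and an HRP-coupled secondary antibody using colorimetric detection.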

[2] = biological target: T2, αllbβ3 integrin (Homo sapiens, UniProt P05106+P08514); test: ELISA: inhibition of binding of αllbβ3 integrin membrane preparation to coated extracellular matrix protein; settings: human platelet membrane preparation
T2 construct: Human platelet membrane preparations were used as a source of αllbβ3 integrin; from tissue; host or cells: human platelets (membrane preparation)
T2 sequence (P08514 32-887 limits assumed): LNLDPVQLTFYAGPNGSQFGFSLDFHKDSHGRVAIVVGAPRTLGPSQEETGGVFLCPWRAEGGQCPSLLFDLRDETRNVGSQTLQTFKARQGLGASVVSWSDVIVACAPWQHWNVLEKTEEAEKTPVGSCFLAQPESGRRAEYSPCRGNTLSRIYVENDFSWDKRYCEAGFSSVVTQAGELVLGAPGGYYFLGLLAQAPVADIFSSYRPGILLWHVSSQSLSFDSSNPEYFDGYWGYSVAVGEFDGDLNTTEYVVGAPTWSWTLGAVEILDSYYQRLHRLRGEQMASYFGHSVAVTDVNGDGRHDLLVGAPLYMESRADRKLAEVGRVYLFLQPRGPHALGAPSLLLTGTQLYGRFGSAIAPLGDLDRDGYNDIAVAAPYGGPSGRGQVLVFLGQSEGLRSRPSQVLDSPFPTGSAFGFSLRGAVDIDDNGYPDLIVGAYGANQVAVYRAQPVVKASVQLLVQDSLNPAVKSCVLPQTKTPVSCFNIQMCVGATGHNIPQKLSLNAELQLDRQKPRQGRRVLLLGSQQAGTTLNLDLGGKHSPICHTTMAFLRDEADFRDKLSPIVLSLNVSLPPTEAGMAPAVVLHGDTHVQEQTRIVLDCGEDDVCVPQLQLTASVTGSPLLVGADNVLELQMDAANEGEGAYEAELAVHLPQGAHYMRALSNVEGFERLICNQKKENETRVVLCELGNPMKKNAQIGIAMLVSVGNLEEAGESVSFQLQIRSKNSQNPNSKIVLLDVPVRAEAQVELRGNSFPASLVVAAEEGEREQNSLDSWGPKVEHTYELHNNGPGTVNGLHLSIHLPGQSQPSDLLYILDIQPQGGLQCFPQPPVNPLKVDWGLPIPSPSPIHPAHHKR
T2 sequence (P08514 891-1039 partner limits assumed): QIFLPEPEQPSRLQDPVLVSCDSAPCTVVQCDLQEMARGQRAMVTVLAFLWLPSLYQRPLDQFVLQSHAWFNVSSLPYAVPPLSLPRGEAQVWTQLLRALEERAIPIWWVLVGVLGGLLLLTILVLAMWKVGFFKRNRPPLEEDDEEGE
T2 sequence (P05106 27-788): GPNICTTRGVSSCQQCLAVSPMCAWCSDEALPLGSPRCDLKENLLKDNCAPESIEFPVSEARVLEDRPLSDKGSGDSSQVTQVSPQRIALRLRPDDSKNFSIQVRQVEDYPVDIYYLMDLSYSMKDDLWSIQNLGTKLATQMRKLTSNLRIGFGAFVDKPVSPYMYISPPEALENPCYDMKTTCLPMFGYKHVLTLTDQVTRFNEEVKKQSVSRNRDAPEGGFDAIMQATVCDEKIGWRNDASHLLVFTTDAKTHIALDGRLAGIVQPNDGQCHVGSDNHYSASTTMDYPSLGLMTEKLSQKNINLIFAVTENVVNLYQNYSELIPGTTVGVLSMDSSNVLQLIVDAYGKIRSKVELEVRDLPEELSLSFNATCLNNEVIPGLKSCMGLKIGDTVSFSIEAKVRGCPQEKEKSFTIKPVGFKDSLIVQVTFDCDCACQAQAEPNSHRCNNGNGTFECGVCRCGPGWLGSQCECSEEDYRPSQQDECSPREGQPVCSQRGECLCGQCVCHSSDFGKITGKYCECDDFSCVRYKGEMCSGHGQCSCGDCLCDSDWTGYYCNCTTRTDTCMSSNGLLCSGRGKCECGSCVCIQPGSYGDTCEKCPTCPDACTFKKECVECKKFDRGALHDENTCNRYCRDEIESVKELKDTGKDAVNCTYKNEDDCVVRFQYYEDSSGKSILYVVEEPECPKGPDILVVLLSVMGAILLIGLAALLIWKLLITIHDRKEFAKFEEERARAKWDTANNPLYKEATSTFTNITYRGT
Procedure, shortened: as §1

T1 sequence (P06756 31-889 limits assumed): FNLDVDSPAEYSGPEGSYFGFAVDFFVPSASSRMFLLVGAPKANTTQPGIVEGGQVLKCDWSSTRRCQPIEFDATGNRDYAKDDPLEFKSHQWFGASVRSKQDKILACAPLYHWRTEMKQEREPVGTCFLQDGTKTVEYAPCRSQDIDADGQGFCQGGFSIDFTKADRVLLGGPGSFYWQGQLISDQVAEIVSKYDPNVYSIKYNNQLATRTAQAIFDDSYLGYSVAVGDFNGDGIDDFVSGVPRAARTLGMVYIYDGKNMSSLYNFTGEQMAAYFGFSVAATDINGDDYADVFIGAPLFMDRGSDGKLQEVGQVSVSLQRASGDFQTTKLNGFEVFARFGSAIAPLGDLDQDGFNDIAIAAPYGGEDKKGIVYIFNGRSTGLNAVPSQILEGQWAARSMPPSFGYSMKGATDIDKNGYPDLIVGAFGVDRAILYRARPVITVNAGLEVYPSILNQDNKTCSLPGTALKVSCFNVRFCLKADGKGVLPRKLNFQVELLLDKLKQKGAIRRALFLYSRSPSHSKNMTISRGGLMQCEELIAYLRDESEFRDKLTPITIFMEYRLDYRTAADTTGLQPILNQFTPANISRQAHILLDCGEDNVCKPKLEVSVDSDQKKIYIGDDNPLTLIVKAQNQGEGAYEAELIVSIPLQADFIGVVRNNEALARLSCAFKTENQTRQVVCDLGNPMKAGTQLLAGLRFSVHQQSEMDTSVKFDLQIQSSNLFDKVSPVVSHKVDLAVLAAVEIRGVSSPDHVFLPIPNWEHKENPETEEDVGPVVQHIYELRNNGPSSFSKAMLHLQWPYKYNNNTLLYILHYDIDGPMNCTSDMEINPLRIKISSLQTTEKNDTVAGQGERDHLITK
T1 sequence (P06756 891-1048 partner limits assumed): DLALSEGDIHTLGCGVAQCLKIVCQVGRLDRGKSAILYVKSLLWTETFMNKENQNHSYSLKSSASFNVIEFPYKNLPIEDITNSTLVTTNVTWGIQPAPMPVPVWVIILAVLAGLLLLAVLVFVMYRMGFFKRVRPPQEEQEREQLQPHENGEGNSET
T1 sequence (P05106 27-788): as the sequence (P05106 27-788) above

Structure (SMILES)	INHIBITION 250 uM RECEPTOR aVb3 SUBSTRATE FIBRINOGEN [1]	INHIBITION @ 250 uM RECEPTOR allBb3 SUBSTRATE FIBRINOGEN [2]	INHIBITION 250 uM RECEPTOR allBb3 SUBSTRATE VITRONECTIN [2]
CCOCC1OC(OCc2ccccc2)C(NC(=O)c2cccc(N)c2)C(OCc2ccc(C(=O)O)cc2)C1O (single isomer, unassigned) [Compound 100]	− (0% to 35% inhibition at 250 micromolar)	− (0% to 35% inhibition at 250 micromolar)	+++ (81% to 100% inhibition at 250 micromolar)
Nc1cccc(C(=O)NC2C(OCc3ccccc3)OC(CO)C(O)C2OCc2ccc(C(=O)O)cc2)c1 (single isomer, unassigned) [Compound 101]	+ (36% to 60% inhibition at 250 micromolar)	− (0% to 35% inhibition at 250 micromolar)	++ (61% to 80% inhibition at 250 micromolar)
Nc1cccc(C(=O)NC2C(OCc3ccccc3)OC(CO)C(O)C2OCc2ccc(C(=O)O)cc2)c1 (single isomer, unassigned) [Compound 102]	+++ (81% to 100% inhibition at 250 micromolar)	− (0% to 35% inhibition at 250 micromolar)	+++ (81% to 100% inhibition at 250 micromolar)
CCC(=O)NC1C(OCc2ccccc2)OC(COCc2cccc(N)c2)C(O)C1OCc1ccc(C(=O)O)cc1 (single isomer, unassigned) [Compound 103]	+++ (81% to 100% inhibition at 250 micromolar)	++ (61% to 80% inhibition at 250 micromolar)	+++ (81% to 100% inhibition at 250 micromolar)
CCC(=O)NC1C(OCc2ccccc2)OC(COCc2cccc(N)c2)C(O)C1OCc1ccc(C(=O)O)cc1 (single isomer, unassigned) [Compound 104]	− (0% to 35% inhibition at 250 micromolar)	− (0% to 35% inhibition at 250 micromolar)	+++ (81% to 100% inhibition at 250 micromolar)
COCC1OC(OCc2ccccc2)C(NC(=O)c2ccc(C(=O)O)cc2)C(OCc2cccc(N)c2)C1O (single isomer, unassigned) [Compound 105]	− (0% to 35% inhibition at 250 micromolar)	+++ (81% to 100% inhibition at 250 micromolar)	++ (61% to 80% inhibition at 250 micromolar)
COCC1OC(OCc2ccccc2)C(NC(=O)c2ccc(C(=O)O)cc2)C(OCc2cccc(N)c2)C1O (single isomer, unassigned) [Compound 106]	− (0% to 35% inhibition at 250 micromolar)	+ (36% to 60% inhibition at 250 micromolar)	+++ (81% to 100% inhibition at 250 micromolar)
CCOCC1OC(OCc2ccccc2)C(NC(=O)c2ccc(C(=O)O)cc2)C(OCc2cccc(N)c2)C1O (single isomer, unassigned) [Compound 107]	− (0% to 35% inhibition at 250 micromolar)	− (0% to 35% inhibition at 250 micromolar)	+++ (81% to 100% inhibition at 250 micromolar)
CCOCC1OC(OCc2ccccc2)C(NC(=O)c2ccc(C(=O)O)cc2)C(OCc2cccc(N)c2)C1O (single isomer, unassigned) [Compound 108]	− (0% to 35% inhibition at 250 micromolar)	− (0% to 35% inhibition at 250 micromolar)	+++ (81% to 100% inhibition at 250 micromolar)
Nc1cccc(COC2C(O)C(CO)OC(OCc3ccccc3)C2NC(=O)c2ccc(C(=O)O)cc2)c1 (single isomer, unassigned) [Compound 109]	− (0% to 35% inhibition at 250 micromolar)	− (0% to 35% inhibition at 250 micromolar)	+++ (81% to 100% inhibition at 250 micromolar)
CCC(=O)NC1C(OCc2ccccc2)OC(COCC(=O)O)C(O)C1OCc1cccc(N)c1 (single isomer, unassigned) [Compound 110]	− (0% to 35% inhibition at 250 micromolar)	− (0% to 35% inhibition at 250 micromolar)	+++ (81% to 100% inhibition at 250 micromolar)
CCC(=O)NC1C(OCc2ccccc2)OC(COCc2ccc(C(=O)O)cc2)C(O)C1OCc1cccc(N)c1 (single isomer, unassigned) [Compound 111]	− (0% to 35% inhibition at 250 micromolar)	− (0% to 35% inhibition at 250 micromolar)	+++ (81% to 100% inhibition at 250 micromolar)
CCC(=O)NC1C(OCc2ccccc2)OC(COCc2ccc(C(=O)O)cc2)C(O)C1OCc1cccc(N)c1 (single isomer, unassigned) [Compound 112]	+++ (81% to 100% inhibition at 250 micromolar)	− (0% to 35% inhibition at 250 micromolar)	+++ (81% to 100% inhibition at 250 micromolar)
CC(=O)NC1C(OCCNC(=N)N)OC(COCC(=O)O)C(O)C1OCc1ccccc1 (single isomer, unassigned) [Compound 113]	+++ (81% to 100% inhibition at 250 micromolar)	+ (36% to 60% inhibition at 250 micromolar)	+++ (81% to 100% inhibition at 250 micromolar)
COCC1OC(OCCNC(=N)N)C(NC(=O)c2ccccc2)C(OCc2ccc(C(=O)O)cc2)C1O (single isomer, unassigned) [Compound 114]	− (0% to 35% inhibition at 250 micromolar)	− (0% to 35% inhibition at 250 micromolar)	++ (61% to 80% inhibition at 250 micromolar)
COCC1OC(OCCNC(=N)N)C(NC(=O)c2ccccc2)C(OCc2ccc(C(=O)O)cc2)C1O (single isomer, unassigned) [Compound 115]	− (0% to 35% inhibition at 250 micromolar)	− (0% to 35% inhibition at 250 micromolar)	− (0% to 35% inhibition at 250 micromolar)
CCOC1OC(COCC(=O)O)C(O)C(OCc2ccccc2)C1NC(=O)CN (single isomer, unassigned) [Compound 116]	− (0% to 35% inhibition at 250 micromolar)	− (0% to 35% inhibition at 250 micromolar)	− (0% to 35% inhibition at 250 micromolar)
CCOC1OC(COCC(=O)O)C(O)C(OCc2ccccc2)C1NC(=O)CN (single isomer, unassigned) [Compound 117]	− (0% to 35% inhibition at 250 micromolar)	+ (36% to 60% inhibition at 250 micromolar)	+++ (81% to 100% inhibition at 250 micromolar)
CCOC1OC(COCC(=O)O)C(O)C(OCc2ccccc2)C1NC(=O)CNC(=N)N (single isomer, unassigned) [Compound 118]	− (0% to 35% inhibition at 250 micromolar)	− (0% to 35% inhibition at 250 micromolar)	+++ (81% to 100% inhibition at 250 micromolar)
CCOC1OC(COCC(=O)O)C(O)C(OCc2ccccc2)C1NC(=O)CNC(=N)N (single isomer, unassigned) [Compound 119]	− (0% to 35% inhibition at 250 micromolar)	− (0% to 35% inhibition at 250 micromolar)	+++ (81% to 100% inhibition at 250 micromolar)
CCOC1OC(COCC(=O)O)C(O)C(OCc2ccccc2)C1NC(=O)CCN (single isomer, unassigned) [Compound 120]	− (0% to 35% inhibition at 250 micromolar)	+ (36% to 60% inhibition at 250 micromolar)	+ (36% to 60% inhibition at 250 micromolar)
CCOC1OC(COCC(=O)O)C(O)C(OCc2ccccc2)C1NC(=O)CCNC(=N)N (single isomer, unassigned) [Compound 122]	− (0% to 35% inhibition at 250 micromolar)	++ (61% to 80% inhibition at 250 micromolar)	++ (61% to 80% inhibition at 250 micromolar)
COC1OC(COCC(=O)O)C(O)C(OCc2ccccc2)C1NC(=O)CCCN (single isomer, unassigned) [Compound 123]	− (0% to 35% inhibition at 250 micromolar)	+ (36% to 60% inhibition at 250 micromolar)	+++ (81% to 100% inhibition at 250 micromolar)
COC1OC(COCC(=O)O)C(O)C(OCc2ccccc2)C1NC(=O)CCCN (single isomer, unassigned) [Compound 124]	+ (36% to 60% inhibition at 250 micromolar)	++ (61% to 80% inhibition at 250 micromolar)	+++ (81% to 100% inhibition at 250 micromolar)
